Source: article doi:10.1101/2020.02.26.964882v3 (biorxiv, 2020)

Target: COVID-19 virus M^pro (Severe acute respiratory syndrome coronavirus 2, UniProt P0DTD1)
Experiment: enzymatic inhibition assay
Type: biochemical

CN(C)CCCSc1ccccc1NC(=O)/C=C/c1ccccc1 [cinanserin]
IC50: 125 µM
